{"source": "patent US20080118980A1", "about": "“Estrogen Enhancing Differentiation of Human Mesenchymal Stromal Cells and Adipose-derived Stromal Cells” (The Board of Trustees of the University of Illinois,, priority 2006, published 2008)", "format_in_all_cases": "cell-based", "key": {"[1]": {"tested_on": "rat bone MSC-based TE constructs", "assay": "Osteogenic differentiation of rat bone MSC-based TE constructs with E2 (Example 4)", "details": "14 days; for calcium deposition: FIG. 9C", "procedure": "TE constructs were created by seeding passage-1 MSCs on gelatin sponges (Gelfoam@, Pharmacia & Upjohn, Kalamazoo, Mich.). The sponge were trimmed into 4×4×4 mm^3 and pre-wet with DMEM medium for 1 hr. The sponges were transferred to MSC suspension with a cell density of 2×10^6 cells/ml under a slight vacuum created by 20 ml syringe, followed by incubation in 5% CO2 at 37° C. for two hours. Beginning the next day as day-0, TE constructs were respectively exposed to the osteogenic differentiation medium supplemented with different concentrations of E2 (10^−6M to 10^−12M). The osteogenic differentiation medium consists of basic medium supplemented with 100 nM dexamethasone, 10 mM β-glycerophosphate, and 0.05 mM ascorbic acid-2-phosphate. After two weeks of differentiation, constructs of each experimental group were collected and quantitatively measured for osteogenic differentiation.\nTE constructs were immersed in 0.2 ml of 1% Triton-X100 and homogenized with sonication. The DNA concentration of cell lysate was measured fluorometrically using Hoechst dye 33258 (Bio-Rad, Hercules, Calif.). The fluorescent optical density of each sample was measured using a fluorometer having an excitation wavelength of 360 nm and an emission wavelength of 460 nm. The amount of DNA in each sample was determined by using a prepared standard curve. ALP and calcium content were measured by spectrophotometry with a calorimetric kit according to the manufacturers' instructions (Sigma, St. Louis, Mo.)."}, "human bone marrow MSCs": {"tested_on": "human bone marrow MSCs", "assay": "Osteogenic differentiation of human bone marrow MSCs modulated by E2 (Example 1)", "excerpt": "Human bone marrow MSCs were provided by the Center for Gene Therapy of Tulane University. The MSCs were isolated from bone marrow cells donated by a healthy adult volunteer. The passage-1 cells were recovered and expanded by culture in a basic medium composed of DMEM, 10% FBS and 1% antibiotic-antimycotic. Human ASCs were isolated from a healthy person with a lipo-aspirated surgery. The abdomen subcutaneous adipose tissue was finely minced and then digested with 0.075 wt % collagenase type I at 37° C. for 45 min. The cells were then collected by filtration with a cell strainer with pore size of 100 μm diameter. The ASCs were expanded in basic DMEM medium. Upon reaching 80-90% confluence of human MSCs and ASCs, the cells were trypsinized, counted, and subcultured at a density of 10^5 cells/100 mm dish. The cells used for study were passage-2. For osteogenic differentiation, the cells were seeded at a cell density of 10^4 cells/cm2 on 12-well plates and 100-mm petri dishes. Upon reaching 70% confluence, counting as day-0, the cells were exposed to osteogenic differentiation medium supplemented with either 10 nM or 10 pM E2. The osteogenic differentiation medium consisted of basic medium supplemented with 100 nM dexamethasone, 10 mM β-glycerophosphate, and 0.05 mM ascorbic acid-2-phosphate. At the defined time, the cells were collected and analyzed for osteogenic gene expression and differentiation potentials.\nThe cultured cells in 12-well plates were washed twice with PBS, suspended and lysed in 1% Triton-X100 solution. The collected cells were subsequently homogenized using sonication. The DNA content was determined by a fluorometric assay (Bio-Rad). ALP and calcium content were measured by spectrophotometry with a calorimetric kit according to the manufacturers' instructions (Sigma).\nRNA was extracted from differentiated cells using TRizol reagent (Invitrogen). 5 μg of total RNA was converted to single stranded cDNA using a commercial cDNA synthesis kit. Aliquots of the cDNA were amplified with Ampli-Taq DNA polymerase for ALP, osteocalcin (OCN), core binding factor alpha1 (cbfa1), peroxisome proliferator activated receptors gamma (PPARγ)-2, estrogen receptors (ER) alpha (α) and beta (β), and housekeeping gene GAPDH. 40 cycles were used, each consisting of 45 sec of denaturation at 95° C., 45 sec of annealing at 58° C., and 1 min of polymerization at 72° C."}, "rat bone MSCs": {"tested_on": "rat bone MSCs", "assay": "Proliferation of rat bone MSCs with E2 modulation (MTS, Example 4)", "details": "for cell proliferation (absorbance at 540 nm) vs control: 10^−9 and 10^−6 M E2, day 3, FIG. 9A; for E2 concentration of proliferation peak: day 3", "procedure": "Three month-old, male and female Fisher 344 rats (Charles River Lab., Wilmington, Mass.) were purchased and euthanized by CO^2 inhalation. The tibias and femurs were dissected and bone marrow plugs were flushed out with a syringe (18-gauge needle), and filled with a basic medium consisting of DMEM, 10%FBS and 1% antibiotic-antimycotic. Cells were counted on a hemacytometer, plated at 5×10^7 cells/100-mm petri dish and incubated with basic DMEM medium at 37° C. in 5% CO2. The MSCs were isolated by removing unattached cells via medium exchange. The MSCs were incubated up to 80% confluence and then subcultured at a density of 10^6/100-mm dish. Prior to confluence, the MSCs were trypsinized, counted and used for measuring proliferation rate using E2 modulation.\nIn order to analyze the estrogen function on cell proliferation, 500 of passage-1 MSCs were placed into each well of 96-well plates and exposed to basic medium supplemented with different concentrations of E2 (10^−6M to 10^−9M) (Sigma, St. Louis, Mo.). On day 3, the cell proliferation with different estrogen modulations were quantified using a MTS calorimetric method according to manufacturer's manual (CellTiter 96® Queous One Solution Cell Proliferation Assay, Promega, Madison, Wis.)"}}, "data": [{"smiles": "C[C@]12CC[C@@H]3c4ccc(O)cc4CC[C@H]3[C@@H]1CC[C@@H]2O", "note": "[E2, 17-β estradiol]", "values": [{"measurement": "peak concentration of E2 to increase ALP activity", "setting": "[1]; both male and female MSCs", "result": "10^−10 M"}, {"measurement": "calcium deposition", "setting": "[1]; female MSC-derived constructs", "result": "does not appear to have similar effects"}, {"measurement": "calcium deposition", "setting": "[1]; male MSC-derived constructs", "result": "may also improve"}, {"measurement": "ALP activities of constructs", "setting": "[1]; male and female constructs, dose-dependent, FIG. 9B", "result": "increased"}, {"measurement": "calcium content", "setting": "human bone marrow MSCs; FIG. 2C", "result": "significantly increased"}, {"measurement": "ALP activities", "setting": "human bone marrow MSCs; after 14 days, FIG. 2B", "result": "little statistical significance"}, {"measurement": "OCN expression (RT-PCR)", "setting": "human bone marrow MSCs; day 7, E2 10 nM", "result": "only densely expressed"}, {"measurement": "cbfa-1 expression (RT-PCR band)", "setting": "human bone marrow MSCs; day 7, vs differentiation without estrogen supplement", "result": "denser band"}, {"measurement": "PPAR-γ2 expression (RT-PCR)", "setting": "human bone marrow MSCs; day 7, vs standard osteogenic medium", "result": "inhibited"}, {"measurement": "cell proliferation (amount of DNA) during osteogenesis", "setting": "human bone marrow MSCs; higher dose of E2, FIG. 2A", "result": "does not affect"}, {"measurement": "ALP and von Kossa staining", "setting": "human bone marrow MSCs; osteogenic differentiation medium supplemented with E2 (10 nM or 10 pM)", "result": "denser color"}, {"measurement": "cell proliferation (absorbance at 540 nm) vs control", "setting": "rat bone MSCs; female MSCs", "result": "significantly higher"}, {"measurement": "E2 concentration of proliferation peak", "setting": "rat bone MSCs; female bone MSCs", "result": "10^−6 M"}, {"measurement": "cell proliferation (absorbance at 540 nm) vs control", "setting": "rat bone MSCs; male MSCs", "result": "significantly higher"}, {"measurement": "E2 concentration of proliferation peak", "setting": "rat bone MSCs; male bone MSCs", "result": "10^−9 M"}]}]}
